Assay results from PMC6150245 (Molecules : A Journal of Synthetic Chemistry and Natural …, 2017).
Converted amounts (≈) assume the structure as drawn. Bridge positions count the residues as written; N and C are the ends. Peptide text beside a SMILES is read from it. I, II: the chains in the order shown.

Assays:
S. aureus SA88 = assay type: cell-based, Staphylococcus aureus; conditions: for MIC: S. aureus SA88 (MRSA, daptomycin heteroresistant), CAMHB, 24 h, 37 °C, duplicate; for MBC: S. aureus SA88, sub-culture on MH agar, 99.9% death
Method: (§1) After confirming antibacterial activity, the peptides were tested against gram-positive and gram-negative multidrug-resistant bacteria, including strains of clinical origin. The peptides, p-BthTX-I, des-Lys^12/(p-BthTX-I)2, and Lys^13-(p-BthTX-I)2 were serially diluted (512–1 μM) in cation-adjusted BBL MH II broth (CAMHB; Becton, Dickson and Co., Sparks, MD, USA) as described by CLSI. Bacteria at 5.0 × 10^5 CFU/mL were added to the media and incubated for 24 h at 37 °C. […] Assays were performed in duplicates, and sterile broth was used as the negative control. To determine the minimal bactericidal concentration (MBC), 100 µL from each well of the MIC assay plates that inhibited bacterial growth were sub-cultured onto MH agar (MHA) plates. […] If the ratio of MBC/MIC was >4, the activity of the peptide was considered bacteriostatic, as described previously.

S. aureus SA16 = assay type: cell-based, Staphylococcus aureus; conditions: S. aureus SA16 (MRSA); for MBC: sub-culture on MH agar, 99.9% death
Method: as §1

S. aureus ATCC25923 = assay type: cell-based, Staphylococcus aureus; conditions: for MIC: S. aureus ATCC25923, CAMHB, 24 h, 37 °C, duplicate; for MBC: S. aureus ATCC25923, sub-culture on MH agar, 99.9% death
Method: as §1

S. aureus SA33 = assay type: cell-based, Staphylococcus aureus; conditions: for MBC: S. aureus SA33, sub-culture on MH agar, 99.9% death
Method: as §1

Serum stability assay = assay type: in vitro ADME; conditions: 25% human male serum, 37 °C
Method: Crude peptides were purified by semi-preparative HPLC on a Shimadzu system (Tokyo, Japan) using a C18 reversed phase column (10 × 250 mm, Phenomenex, Torrance, CA, USA). Solvent A contained 0.045% trifluoroacetic acid (TFA) in water. Elution was achieved using a linear gradient (5–35%) of solvent B (0.036% TFA in acetonitrile) for 120 min at 5 mL/min. The purity of the peptides was determined by analytical HPLC on a Shimadzu system using a C18 column (4.6 × 150 mm, Phenomenex, Torrance, CA, USA) with a linear gradient of solvent B (5–95%) for 30 min at 1 mL/min. Liquid chromatography-mass spectrometry (LC/MS) was performed using a C18 column (2.0 × 30 mm, Shimadzu) attached to analytical HPLC and an amaZon ion trap mass spectrometer (Bruker Daltonics) using ESI. Peptides were eluted using a linear gradient of solvent B (5–95%) for 15 min at 0.2 mL/min.
Peptide stability assays were performed in diluted serum as previously described with minor modifications. First, 2 mL of 25% human male serum was centrifuged at 3000× g for 10 min; the supernatant was collected and incubated for 15 min at 37 °C. Next, peptides were added to the serum to a final concentration of 100 µM. Then, 200 µL of samples were collected at different time points during the assays, which were performed in duplicate. Analyses were performed by LC/MS and analytical HPLC, as described above.

human red blood cells = test: Hemolysis assay; assay type: cell-based; conditions: 1% (v/v) human erythrocytes in Tris-saline pH 7.4, 1 h, 37 °C, absorbance 405 nm, triplicate
Method: Peptide hemolysis assays were performed as previously described by Castro et al.. Briefly, freshly prepared human red blood cells (RBCs) were washed three times with 0.01 M Tris-HCl (pH 7.4) containing 0.15 M NaCl (Tris-saline). A suspension of 1% (v/v) erythrocytes was made with packed RBCs resuspended in Tris-saline. Peptides were dissolved in Tris-saline at an initial concentration of […] and serially diluted in the same buffer to determine the concentration that triggered 50% hemolysis (HC50). As the positive control (100% lysis), 1% (v/v) Triton X-100 solution was used. After 1 h of incubation at 37 °C, the samples were centrifuged at 3000× g for 5 min. Then, 100 µL aliquots of the supernatant were transferred to 96-well microplates, and the absorbance was determined at 405 nm. The assay was performed in triplicates.

K. pneumoniae NDM-1 = assay type: cell-based, Klebsiella pneumoniae; conditions: for MIC: K. pneumoniae NDM-1, CAMHB, 24 h, 37 °C; for MBC: K. pneumoniae NDM-1, sub-culture on MH agar, 99.9% death
Method: as §1

[1] = test system: K. pneumoniae ATCCBAA1705; assay type: cell-based, Klebsiella pneumoniae; conditions: for MIC: K. pneumoniae ATCCBAA1705 (KPC), CAMHB, 24 h, 37 °C, duplicate; for MBC: K. pneumoniae ATCCBAA1705, sub-culture on MH agar, 99.9% death
Method: as §1

S. epidermidis ATCC35984 = assay type: cell-based, Staphylococcus epidermidis; conditions: for MIC: S. epidermidis ATCC35984, CAMHB, 24 h, 37 °C, duplicate; for MBC: S. epidermidis ATCC35984, sub-culture on MH agar, 99.9% death
Method: as §1

E. coli ATCC25922 = test: MIC, microdilution in MH broth (initial screening); assay type: cell-based, Escherichia coli; conditions: 24 h, 37 °C, resazurin, triplicate
Method: (§2) The minimum inhibitory concentrations (MIC) were determined following the Clinical and Laboratory Standards Institute (CLSI) recommendations. Antibacterial and antifungal activity tests were performed using the microdilution method. For initial screening, peptides were tested against C. albicans ATCC18804, E. coli ATCC25922, and S. aureus ATCC25923. Briefly, bacterial cells in MH broth (80 μL aliquots containing 1.5 × 10^7 CFU) were incubated with synthetic peptides (serial dilution from 512 to 1 μM) dissolved in Milli-Q water. After incubation for 24 h at 37 °C, the microtiter plates were analyzed visually by addition of resazurin. For the antifungal assays, the culture medium was RPMI 1640 buffered with L-glutamine (pH 7.2), 0.165 M morpholinepropanesulfonic acid (MOPS), and 2% glucose. Cell suspensions (final concentration of 1 × 10^3–2.5 × 10^3 CFU/mL) were inoculated on a microdilution plate previously prepared with serially diluted synthetic peptides (128–1 μM). The plates were incubated for 48 h at 37 °C. Each assay was performed in triplicates. Additionally, amphotericin B and fluconazole were used as the control drugs. MIC was defined as the lowest concentration of peptide at which no growth was detected.

C. albicans ATCC18804 = test: Antifungal MIC, microdilution in RPMI 1640; assay type: cell-based, Candida albicans; conditions: C. albicans ATCC18804, RPMI 1640, 48 h, 37 °C, peptides 128-1 µM, triplicate
Method: as §2

SMILES	MIC (S. aureus SA88)	MBC (S. aureus SA88)	MBC (S. aureus SA16)	MIC (S. aureus ATCC25923)	MBC (S. aureus ATCC25923)	MBC (S. aureus SA33)	Incubation time after which the peptide was completely degraded in human serum (Serum stability assay; peptide 100 µM, analytical HPLC (C18) and LC/MS, duplicate)	HC50 (peptide concentration that produced 50% hemolysis) (human red blood cells)	MIC (K. pneumoniae NDM-1)	MBC (K. pneumoniae NDM-1)	MIC [1]	MBC [1]	MIC (S. epidermidis ATCC35984)	MBC (S. epidermidis ATCC35984)	MIC (E. coli ATCC25922)	MIC (C. albicans ATCC18804)	MIC (S. aureus SA16; CAMHB, 24 h, 37 °C)	MIC (S. aureus SA33; S. aureus SA33 (MRSA, tigecycline resistant), CAMHB, 24 h, 37 °C)	Incubation time in human serum after which further degradation products were observed (Serum stability assay; mass spectrometry, data not shown)	Incubation time in human serum after which the peptide remained intact (stable) (Serum stability assay; product formed from (p-BthTX-I)2 100 µM, LC/MS and HPLC)
CC(C)C[C@H](NC(=O)[C@H](Cc1c[nH]cn1)NC(=O)[C@H](Cc1ccc(O)cc1)NC(=O)[C@H](CCCNC(=N)N)NC(=O)[C@H](Cc1ccc(O)cc1)NC(=O)[C@H](CCCCN)NC(=O)[C@@H](N)CCCCN)C(=O)N[C@@H](CCCCN)C(=O)N1CCC[C@H]1C(=O)N[C@@H](Cc1ccccc1)C(=O)N[C@@H](CSSC[C@H](NC(=O)[C@H](Cc1ccccc1)NC(=O)[C@@H]1CCCN1C(=O)[C@H](CCCCN)NC(=O)[C@H](CC(C)C)NC(=O)[C@H](Cc1c[nH]cn1)NC(=O)[C@H](Cc1ccc(O)cc1)NC(=O)[C@H](CCCNC(=N)N)NC(=O)[C@H](Cc1ccc(O)cc1)NC(=O)[C@H](CCCCN)NC(=O)[C@@H](N)CCCCN)C(=O)N[C@@H](CCCCN)C(=O)N[C@@H](CCCCN)C(=O)O)C(=O)N[C@@H](CCCCN)C(=O)N[C@@H](CCCCN)C(=O)O [(p-BthTX-I)2]	256 µM (≈ 890 µg/mL)	256 µM (≈ 890 µg/mL)	512 µM (≈ 1780 µg/mL)	512 µM (≈ 1780 µg/mL)	512 µM (≈ 1780 µg/mL)	512 µM (≈ 1780 µg/mL)	30 min	>128 µM	256 µM (≈ 890 µg/mL)	512 µM (≈ 1780 µg/mL)	256 µM (≈ 890 µg/mL)	512 µM (≈ 1780 µg/mL)	16 µM (≈ 55.6 µg/mL)	64 µM (≈ 222 µg/mL)	4 µM (≈ 13.9 µg/mL)	>128 µM				
CC(C)C[C@H](NC(=O)[C@H](Cc1c[nH]cn1)NC(=O)[C@H](Cc1ccc(O)cc1)NC(=O)[C@H](CCCNC(=N)N)NC(=O)[C@H](Cc1ccc(O)cc1)NC(=O)[C@H](CCCCN)NC(=O)[C@@H](N)CCCCN)C(=O)N[C@@H](CCCCN)C(=O)N1CCC[C@H]1C(=O)N[C@@H](Cc1ccccc1)C(=O)N[C@@H](CSSC[C@H](NC(=O)[C@H](Cc1ccccc1)NC(=O)[C@@H]1CCCN1C(=O)[C@H](CCCCN)NC(=O)[C@H](CC(C)C)NC(=O)[C@H](Cc1c[nH]cn1)NC(=O)[C@H](Cc1ccc(O)cc1)NC(=O)[C@H](CCCNC(=N)N)NC(=O)[C@H](Cc1ccc(O)cc1)NC(=O)[C@H](CCCCN)NC(=O)[C@@H](N)CCCCN)C(=O)O)C(=O)O [des-Lys^12/Lys^13-(p-BthTX-I)2] (I: H-KKYRYHLKPFC-OH / II: H-KKYRYHLKPFC-OH; disulfide I:11-II:11)	256 µM (≈ 759 µg/mL)	512 µM (≈ 1520 µg/mL)	128 µM (≈ 379 µg/mL)	128 µM (≈ 379 µg/mL)	256 µM (≈ 759 µg/mL)	256 µM (≈ 759 µg/mL)		>128 µM	256 µM (≈ 759 µg/mL)	512 µM (≈ 1520 µg/mL)	32 µM (≈ 94.8 µg/mL)	64 µM (≈ 190 µg/mL)	32 µM (≈ 94.8 µg/mL)	32 µM (≈ 94.8 µg/mL)	16 µM (≈ 47.4 µg/mL)	>128 µM	128 µM (≈ 379 µg/mL)	128 µM (≈ 379 µg/mL)	30 h	24 h
